Measurements reported in US7902261B2, “Medicinal compositions for preventing or treating viral myocarditis” (Mitsubishi Tanabe Pharma Corporation, priority 1999, dated 2011).
Where a name gives a salt, the structure may show the parent alone.

What was measured:
IFN-γ = experiment: Intracardiac cytokine assay (ELISA), IFN-γ; type: in vivo, mouse; settings: heart ventricle at day 5; CsA 40 mg/kg/day, compound 1 10 mg/kg/day orally; mean ± SEM; control 151.20 ± 15.66
Method: (§1) Four-week-old male DBA/2 mice were divided into 3 groups and EMC virus (10 pfu) was intraperitoneally inoculated. After inoculation, distilled water (solvent, n=8) as a control, CsA (40 mg/kg/day, n=5), and compound 1 (10 mg/kg/day, n=7) were orally administered forcibly for 5 consecutive days using a probe. Five days later, the heart was aseptically harvested from the mice, and after weighing the ventricle, homogenized in phosphate-buffered saline (PBS, 1 ml). The homogenate was centrifuged at 4° C., 1,500 g for 15 min and the supernatant (0.1 ml) was inoculated to human amnion FL cell monolayer and cultured at 37° C. for 60 min in 5% CO2. The cells were overlaid with a medium (3 ml) containing 4% fetal calf serum and 1% methylcellulose. After culture under 5% CO2-containing humidified atmosphere at 37° C. for 20 hr, the cells were fixed with acetic acid-methanol (1:2) and stained with 1% crystal violet. The plaques were counted under an inverted microscope (Circulation. 89:846-851, 1994). When the plaques are too many to count, the supernatant is appropriately diluted with Dulbecco's modified Eagle's medium (DMEM) and subjected to a similar assay. […]
(§2) The total protein concentration of each supernatant was measured by bicinchoninic acid (BCA) method, and the ratio of the cytokine concentration to the total protein concentration was calculated (J. Am. Coll. Cardiol. 33:1400-1407, 1999). […]

[1] = system: EMC (Encephalomyocarditis) virus; experiment: Survival rate, EMC viral myocarditis in mice (Experimental Example 1); type: in vivo, DBA/2 mice; settings: EMC virus 10 pfu i.p., control 0%
Method: Four-week-old DBA/2 mice were divided into 3 groups, and EMC (Encephalomyocarditis) virus (10 pfu) was intraperitoneally inoculated. After inoculation, distilled water (solvent, group A, n=11) as a control, compound 1 (1 mg/kg/day, group B, n=10), and compound 1 (3 mg/kg/day, group C, n=10) were orally administered forcibly for 14 consecutive days using a probe. The survival rate of each group after 14 days was compared by Kaplan-Meier method.

EMC virus [2] = experiment: Histopathological observation of the heart (Experimental Example 2); type: in vivo, male DBA/2 mice; settings: CsA 40 mg/kg/day, compound 1 10 mg/kg/day orally for 5 days, day 5, mean ± SEM
Method: (§3) Four-week-old DBA/2 mice were divided into 3 groups and EMC (Encephalomyocarditis) virus (10 pfu) was intraperitoneally inoculated. After inoculation, distilled water (solvent, n=9) as a control, compound 1 (3 mg/kg/day, n=8), and compound 1 (10 mg/kg/day, n=8) were orally administered forcibly for 5 consecutive days using a probe. Five days later, the heart was removed, and, after fixing with formalin, subjected to hematoxylin-eosin staining, based on which heart necrosis and cellular infiltration were scored as follows. • 0; no lesion, • 1+; lesion in 25% or less of the heart, • 2+; lesion in more than 25% and not more than 50% of the heart • 3+; lesion in more than 50% and not more than 75% of the heart • 4+; lesion in more than 75% and not more than 100% of the heart Results
Four-week-old male DBA/2 mice were divided into 3 groups and EMC virus (10 pfu) was intraperitoneally inoculated. […] Five days later, the heart was harvested, and, after fixing with formalin, subjected to hematoxylin-eosin staining, based on which heart necrosis and cellular infiltration were scored according to the criteria shown in Experimental Example 1.
The myocardial cell necrosis and cellular infiltration were independently scored by two observers and averaged. […]

NO = experiment: Intracardiac nitric oxide (NO) assay (modified Griess method); type: in vivo, mouse; settings: heart ventricle at day 5; CsA 40 mg/kg/day, compound 1 10 mg/kg/day orally; mean ± SEM; control 2.07 ± 0.20
Method: as §1, with “After culture under 5% CO2-containing humidified atmosphere at 37° C. for 20 hr, the cells were fixed with acetic acid-methanol (1:2) and stained with 1% crystal violet.” left out, “1994).” for “1994). When the plaques are too many to count, the supernatant is appropriately diluted with Dulbecco's modified Eagle's medium (DMEM) and subjected to a similar assay.”
The intracardiac NO content was measured using the same supernatant as used for the cytokine assay according to a modified method of Griess method (J. Am. Coll. Cardiol. 33:1400-1407, 1999; Anal. Biochem. 224:502-508, 1995). […] Optical density at 540 nm was measured using a microplate reader. The nitrite concentration of each sample was calculated based on the standard product. […] The intracardiac NO content was determined by dividing each nitrite concentration by the total protein concentration of each supernatant and expressed in μM/mg total protein. […]

EMC virus [3] = experiment: Intracardiac virus titer (plaque assay on human amnion FL cells); type: in vivo, male DBA/2 mice; settings: CsA 40 mg/kg/day, compound 1 10 mg/kg/day orally for 5 days; heart at day 5; mean ± SEM; control 5.18 ± 2.73 × 10^6
Method: Four-week-old male DBA/2 mice were divided into 3 groups and EMC virus (10 pfu) was intraperitoneally inoculated. After inoculation, distilled water (solvent, n=8) as a control, CsA (40 mg/kg/day, n=5), and compound 1 (10 mg/kg/day, n=7) were orally administered forcibly for 5 consecutive days using a probe. Five days later, the heart was aseptically harvested from the mice, and after weighing the ventricle, homogenized in phosphate-buffered saline (PBS, 1 ml). The homogenate was centrifuged at 4° C., 1,500 g for 15 min and the supernatant (0.1 ml) was inoculated to human amnion FL cell monolayer and cultured at 37° C. for 60 min in 5% CO2. The cells were overlaid with a medium (3 ml) containing 4% fetal calf serum and 1% methylcellulose. After culture under 5% CO2-containing humidified atmosphere at 37° C. for 20 hr, the cells were fixed with acetic acid-methanol (1:2) and stained with 1% crystal violet. The plaques were counted under an inverted microscope (Circulation. 89:846-851, 1994). When the plaques are too many to count, the supernatant is appropriately diluted with Dulbecco's modified Eagle's medium (DMEM) and subjected to a similar assay. The test was repeated and the mean was taken. The virus titer was expressed in pfu/g heart. The statistical analysis was conducted by one way ANOVA and Fisher's protected least significant difference test.

IL-2 = experiment: Intracardiac cytokine assay (ELISA), IL-2; type: in vivo, mouse; settings: heart ventricle at day 5; CsA 40 mg/kg/day, compound 1 10 mg/kg/day orally; mean ± SEM; control 12.79 ± 1.24
Method: as §1, §2

EMC virus [4] = experiment: Survival rate, EMC viral myocarditis in mice (Experimental Example 2); type: in vivo, DBA/2 male mice; settings: compound 1 10 mg/kg/day orally for 14 days, n=22 (6 survived); control 0%
Method: The effects on viral myocarditis of compound 1 and an immunosuppressant, cyclosporin A (hereinafter to be referred to as CsA), were compared. The compound 1 was dissolved in sterile distilled water and administered, and CsA was dissolved in olive oil and administered.
Four-week-old DBA/2 male mice were divided into 3 groups, and EMC virus (10 pfu) was intraperitoneally inoculated. After inoculation, distilled water (solvent, control group, n=21), CsA (40 mg/kg/day, CsA group, n=9), and compound 1 (10 mg/kg/day, compound 1 group, n=22) were orally administered forcibly for 14 consecutive days using a probe. The survival rate of each group after 14 days was compared by Kaplan-Meier method.

TNF-α = experiment: Intracardiac cytokine assay (ELISA), TNF-α; type: in vivo, mouse; settings: heart ventricle at day 5; CsA 40 mg/kg/day, compound 1 10 mg/kg/day orally; mean ± SEM; control 4.11 ± 0.11
Method: as §1, §2

[5] = system: EMC (Encephalomyocarditis) virus; experiment: Histopathological observation of the heart (Experimental Example 1); type: in vivo, DBA/2 mice; settings: n=8, day 5, mean ± SEM; for necrosis of myocardial cell (score 0 to 4+): control 1.9 ± 0.2; for cellular infiltration (score 0 to 4+): control 2.0 ± 0.2
Method: as §3

IL-12 = experiment: Intracardiac cytokine assay (ELISA), IL-12; type: in vivo, mouse; settings: heart ventricle at day 5; CsA 40 mg/kg/day, compound 1 10 mg/kg/day orally; mean ± SEM; control 71.76 ± 7.37
Method: as §1, §2

CCCCCCCCc1ccc(CCC(N)(CO)CO)cc1 [compound 1, 2-Amino-2-(2-(4-octylphenyl)ethyl)propane-1,3-diol hydrochloride]
IFN-γ (IFN-γ): 108.86 ± 12.98 pg/mg total protein | survival rate at day 14 ([1]; 1 mg/kg/day orally for 14 days (group B, n=10)): 10% | survival rate at day 14 ([1]; 3 mg/kg/day orally for 14 days (group C, n=10), p<0.05): 30% | necrosis of myocardial cell (score 0 to 4+) (EMC virus [2]; control 1.89 ± 0.23): 1.00 ± 0.19 | cellular infiltration (score 0 to 4+) (EMC virus [2]; control 2.00 ± 0.19): 1.06 ± 0.19 | NO content (NO): 1.91 ± 0.34 μM/mg total protein | virus titer (EMC virus [3]): 1.23 ± 0.53 × 10^7 (NS) pfu/g heart | IL-2 (IL-2): 6.06 ± 0.67 ng/mg total protein | survival rate at day 14 (EMC virus [4]): 27% | TNF-α (TNF-α): 3.72 ± 0.25 ng/mg total protein | necrosis of myocardial cell (score 0 to 4+) ([5]; 3 mg/kg/day orally for 5 days): 1.7 ± 0.4 | cellular infiltration (score 0 to 4+) ([5]; 3 mg/kg/day orally for 5 days): 1.6 ± 0.2 | necrosis of myocardial cell (score 0 to 4+) ([5]; 10 mg/kg/day orally for 5 days): 1.0 ± 0.2 | cellular infiltration (score 0 to 4+) ([5]; 10 mg/kg/day orally for 5 days): 1.1 ± 0.2 | IL-12 (IL-12): 46.00 ± 12.82 pg/mg total protein
